The results in this text go back to patent publication US4419123A, “Herbicidal 4-trifluoromethyl-3'-carbon-substituted-4'-substituted diphenyl ethers” (Rohm and Haas Company, priority 1981, dated 1983).

Assay [1] can be described thus: Preemergence herbicidal activity (% control) against monocot weeds. It counts as in vivo. To be noted: pre-emergence, 336 h, average, about two weeks after application, read-out: Herbicidal activity (% control), preemergence, monocots; for activity at 4483.4 g/ha: 4 lb./A.; for activity at 11208.5 g/ha: 10 lb./A.; for activity at 2241.7 g/ha: 2 lb./A. From the text:
(§1) barnyardgrass (Echinochloa crusgalli) crabgrass (Digitaria spp.) nutsedge (Cyperus esculentus)
(§2) At 2 and 4 pounds per acre:
(§3) **Bermudagrass (Cynodon dactylon)
(§4) *downy brome (Bromus tectorum) foxtail (Setaria faberii)
(§5) Johnsongrass (Sorghum halepense) […]
(§6) quackgrass (Agropyron repens)
(§7) *ryegrass (Lolium perenne)
(§8) *wild oats (Avena factua)
(§9) *yellow millet (Panicum miliaceum)
(§10) The following test procedure is employed.

Assay [2] is described as follows: Postemergence herbicidal activity (% control) against dicot weeds. To be noted: post-emergence, 336 h; for activity at 4483.4 g/ha: read-out: Herbicidal activity (% control), postemergence, dicots, 4 lb./A., average, about two weeks after application; for activity at 11208.5 g/ha: read-out: Herbicidal activity (% control), postemergence, dicots, 10 lb./A., average, about two weeks after application; for activity at 2241.7 g/ha: read-out: Herbicidal activity (% control), postemergence, dicots, 2 lb./A., average, about two weeks after application.

Assay [3] in a line: Preemergence herbicidal activity (% control) against dicot weeds. To be noted: pre-emergence, 336 h; for activity at 4483.4 g/ha: read-out: Herbicidal activity (% control), preemergence, dicots, 4 lb./A., average, about two weeks after application; for activity at 11208.5 g/ha: read-out: Herbicidal activity (% control), preemergence, dicots, 10 lb./A., average, about two weeks after application; for activity at 2241.7 g/ha: read-out: Herbicidal activity (% control), preemergence, dicots, 2 lb./A., average, about two weeks after application.

Assay [4] in a line: Postemergence herbicidal activity (% control) against monocot weeds. In kind it is in vivo. The settings on record: post-emergence, 336 h, average, about two weeks after application, read-out: Herbicidal activity (% control), postemergence, monocots; for activity at 4483.4 g/ha: 4 lb./A.; for activity at 11208.5 g/ha: 10 lb./A.; for activity at 2241.7 g/ha: 2 lb./A.
Excerpt: as §1, §2, §3, §4, §5, §6, §7, §8, §9, §10

For the molecule `CCOc1cc(Oc2ccc(C(F)(F)F)cc2)ccc1[N+](=O)[O-]` [Example 1], the activity at 4483.4 g/ha turned out to be 76% in assay [1], 58% in assay [2], 45% in assay [3] and 57% in assay [4]. Moreover, the activity at 11208.5 g/ha in assay [1] is 42%; in assay [2] it was 100%; in assay [3] it was 35%; in assay [4] it was 82%.
For `COc1cc(Oc2ccc(C(F)(F)F)cc2Cl)ccc1[N+](=O)[O-]` [Example 2], the activity at 4483.4 g/ha was determined as 97% in assay [1], 100% in assay [2], 80% in assay [3] and 99% in assay [4]. Further, the values for the activity at 11208.5 g/ha in assay [1], in assay [3] and in assay [4] were 97%, 100% and 100%, respectively.
As to `CCCOc1cc(Oc2ccc(C(F)(F)F)cc2Cl)ccc1[N+](=O)[O-]` [Example 5], the activity at 4483.4 g/ha was determined as 84% in assay [1], 100% in assay [2], 78% in assay [3] and 99% in assay [4]. Also, the values for the activity at 11208.5 g/ha in assay [1], in assay [3] and in assay [4] were 97%, 100% and 100%, respectively.
Turning to `CCCCOc1cc(Oc2ccc(C(F)(F)F)cc2Cl)ccc1[N+](=O)[O-]` [Example 6], the activity at 4483.4 g/ha was determined as 77% in assay [1], 94% in assay [2], 55% in assay [3] and 91% in assay [4]. Besides, the activity at 11208.5 g/ha came to 65% in assay [1], 100% in assay [2], 70% in assay [3] and 97% in assay [4].
Regarding `CCOc1cc(Oc2ccc(C(F)(F)F)cc2C#N)ccc1[N+](=O)[O-]` [Example 7, 2-Cyano-α,α,α-trifluoro-p-tolyl-3-ethoxy-4-nitrophenyl ether], the activity at 2241.7 g/ha in assay [1] turned out to be 65%; in assay [2], 80%; in assay [3] it was 54%; in assay [4] it was 82%. For the same molecule, the activity at 4483.4 g/ha in assay [1] was 65%; in assay [2], 77%; in assay [3], 57%; in assay [4], 75%. Also, the figures for the activity at 11208.5 g/ha in assay [1], in assay [3] and in assay [4] were 61%, 60% and 100%, respectively.
As for `CCCOc1cc(Oc2ccc(C(F)(F)F)cc2C#N)ccc1[N+](=O)[O-]` [Example 8], the activity at 2241.7 g/ha in assay [1] was found to be 52%; in assay [2], 66%; in assay [3] it was 46%; in assay [4], 35%. The activity at 4483.4 g/ha turned out to be 61% in assay [1], 80% in assay [2], 57% in assay [3] and 48% in assay [4]. Besides, the activity at 11208.5 g/ha in assay [1] was determined as 81%; in assay [2], 100%; in assay [3], 82%; in assay [4] it was 85%.
For the molecule `Cc1cc(Oc2ccc(C(F)(F)F)cc2C#N)ccc1[N+](=O)[O-]` [Example 9], the activity at 2241.7 g/ha came out at 81% in assay [1], 75% in assay [2], 67% in assay [3] and 82% in assay [4]. Further, the activity at 4483.4 g/ha was 90% in assay [1], 81% in assay [2], 66% in assay [3] and 97% in assay [4]. Besides, the figures for the activity at 11208.5 g/ha in assay [1], in assay [3] and in assay [4] were 99%, 92% and 100%, respectively.
For the molecule `O=[N+]([O-])c1ccc(Oc2ccc(C(F)(F)F)cc2Cl)cc1O` [Example 10, 2-Chloro-α,α,α-trifluoro-p-tolyl-3-hydroxy-4-nitrophenylether], the activity at 2241.7 g/ha in assay [1] came to 66%; in assay [2], 85%; in assay [3] it was 70%; in assay [4] it was 17%. Besides, the activity at 4483.4 g/ha in assay [1] stood at 70%; in assay [2], 98%; in assay [3], 100%; in assay [4] it was 67%.
As to `C=CCOc1cc(Oc2ccc(C(F)(F)F)cc2Cl)ccc1[N+](=O)[O-]` [Example 12], the activity at 2241.7 g/ha in assay [1] was 72%; in assay [2], 100%; in assay [3], 93%; in assay [4], 99%. Further, the activity at 4483.4 g/ha in assay [1] was found to be 86%; in assay [2] it was 100%; in assay [3], 96%; in assay [4] it was 77%.
In the case of `C#CCOc1cc(Oc2ccc(C(F)(F)F)cc2Cl)ccc1[N+](=O)[O-]` [Example 13], the activity at 2241.7 g/ha in assay [1] is 78%; in assay [3] it was 72%; in assay [4] it was 100%. Besides, the activity at 4483.4 g/ha was 76% in assay [1], 98% in assay [2], 90% in assay [3] and 77% in assay [4].
With `CC#CCCOc1cc(Oc2ccc(C(F)(F)F)cc2Cl)ccc1[N+](=O)[O-]` [Example 14], the activity at 2241.7 g/ha was determined as 30% in assay [1], 100% in assay [2], 22% in assay [3] and 91% in assay [4]. Besides, the activity at 4483.4 g/ha in assay [1] turned out to be 64%; in assay [2] it was 94%; in assay [3], 78%; in assay [4] it was 61%.
As for `O=[N+]([O-])c1ccc(Oc2ccc(C(F)(F)F)cc2Cl)cc1OCCO` [Example 15, 2-chloro-α,α,α-trifluoro-p-tolyl-3-(2-hydroxyethoxy)-4-nitrophenyl ether], the activity at 2241.7 g/ha in assay [1] was 68%; in assay [2], 94%; in assay [3], 90%; in assay [4], 76%. Moreover, the activity at 4483.4 g/ha in assay [1] was found to be 99%; in assay [2], 99%; in assay [3] it was 100%; in assay [4] it was 79%.
Consider `CCOCCOc1cc(Oc2ccc(C(F)(F)F)cc2Cl)ccc1[N+](=O)[O-]` [Example 16], for which the activity at 2241.7 g/ha in assay [1] is 67%; in assay [2], 94%; in assay [3], 75%; in assay [4] it was 82%. Besides, the activity at 4483.4 g/ha came out at 86% in assay [1], 96% in assay [2], 94% in assay [3] and 77% in assay [4].
As to `CN(C)CCOc1cc(Oc2ccc(C(F)(F)F)cc2Cl)ccc1[N+](=O)[O-]` [Example 17, 2-chloro-α,α,α-trifluoro-p-tolyl-3-(2-dimethylaminoethoxy)-4-nitrophenyl ether], the activity at 2241.7 g/ha in assay [1] is 20%; in assay [2], 98%; in assay [3], 31%; in assay [4], 39%. The activity at 4483.4 g/ha in assay [1] was found to be 51%; in assay [2] it was 89%; in assay [3], 84%; in assay [4], 45%.
For the molecule `O=[N+]([O-])c1ccc(Oc2ccc(C(F)(F)F)cc2Cl)cc1NCCO` [Example 22], the activity at 2241.7 g/ha amounted to 63% in assay [1], 100% in assay [2], 77% in assay [3] and 70% in assay [4]. In addition, the activity at 4483.4 g/ha was 72% in assay [1], 99% in assay [2], 98% in assay [3] and 60% in assay [4].
As to `O=C(O)COc1cc(Oc2ccc(C(F)(F)F)cc2Cl)ccc1[N+](=O)[O-]` [Example 23], the activity at 2241.7 g/ha in assay [1] turned out to be 55%; in assay [2], 100%; in assay [3] it was 87%; in assay [4], 71%. Further, the activity at 4483.4 g/ha in assay [1] was found to be 90%; in assay [2], 100%; in assay [3], 64%; in assay [4], 82%.
Take `CCOC(=O)COc1cc(Oc2ccc(C(F)(F)F)cc2Cl)ccc1[N+](=O)[O-]` [Example 24]: the activity at 2241.7 g/ha in assay [1] was 62%; in assay [2] it was 100%; in assay [3], 97%; in assay [4] it was 84%. Moreover, the activity at 4483.4 g/ha turned out to be 91% in assay [1], 99% in assay [2], 68% in assay [3] and 86% in assay [4].
